The text below walks through data of PubChem BioAssay (NCI).

Test systems include A549 NSCLC; ACHN renal; BT-549 breast; CAKI-1 renal; COLO 205 colon; DU-145 prostate; HCT-116 colon; HS 578T breast; KM12 colon; MCF7 breast; NCI/ADR-RES ovarian; RPMI-8226 leukemia; SF-268 CNS; SF-295 CNS; SK-MEL-2 melanoma; SK-MEL-5 melanoma; SW-620 colon; U251 CNS; HT29 colon; SK-OV-3 ovarian.
What all share (experiment): NCI tumour cell line growth inhibition, 48 h

Molecules are shown by their SMILES.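 Values below derive from 48-hour exposures of cells grown in 96-well plates, with endpoints linearly interpolated between the two concentrations bracketing the appropriate inhibition level. At the TGI there is no net growth.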

Take `CCOC(=O)c1ccc(C(=O)n2ccnc2)[nH]1`: the TGI in the test with A549 NSCLC, in the test with ACHN renal, with BT-549 breast, in the test on CAKI-1 renal, with COLO 205 colon and in the test on DU-145 prostate was greater than 100 µM throughout. In addition, the TGI in the test with HCT-116 colon, in the test with HS 578T breast, with KM12 colon, in the test with MCF7 breast, in the test with NCI/ADR-RES ovarian and in the test on RPMI-8226 leukemia was greater than 100 µM in each case. Moreover, the TGI in the test on SF-268 CNS, in the test with SF-295 CNS, in the test with SK-MEL-2 melanoma, in the test on SK-MEL-5 melanoma, with SW-620 colon and with U251 CNS was greater than 100 µM each time.

In the case of `Cc1cc(C)nc(NS(=O)(=O)c2ccc(Nc3c4ccccc4nc4c(C(=O)NC(CO)(CO)CO)cccc34)cc2)n1`, the TGI is 73.2 µM with A549 NSCLC; greater than 100 µM in the test on ACHN renal; 44.2 µM in the test with BT-549 breast; greater than 100 µM in the test on CAKI-1 renal; 42.6 µM with COLO 205 colon; greater than 100 µM in the test on DU-145 prostate. Besides, the TGI in the test with HS 578T breast was greater than 100 µM; with HT29 colon it was 70.8 µM; in the test on KM12 colon it was 36.4 µM; with MCF7 breast, greater than 100 µM; in the test with NCI/ADR-RES ovarian, greater than 100 µM; in the test on RPMI-8226 leukemia, 91.8 µM. Besides, the TGI in the test on SF-268 CNS is greater than 100 µM; in the test with SF-295 CNS, greater than 100 µM; with SK-MEL-2 melanoma, 44.4 µM; in the test with SK-MEL-5 melanoma, 44.5 µM; in the test on SK-OV-3 ovarian, greater than 100 µM; in the test on SW-620 colon it was greater than 100 µM. The same compound came in with a TGI in the test with U251 CNS of 83.5 µM.

`COc1cc(C2OC(N)=C(C#N)C3=C2C(C)CCC3)cc(OC)c1OC` (stereo not given): the TGI with ACHN renal, in the test with BT-549 breast, with CAKI-1 renal, in the test with COLO 205 colon, in the test on DU-145 prostate and with HCT-116 colon was greater than 100 µM throughout. In addition, the TGI in the test with HS 578T breast, with HT29 colon, in the test with KM12 colon, in the test on MCF7 breast, in the test with NCI/ADR-RES ovarian and in the test on RPMI-8226 leukemia was greater than 100 µM in each case. The TGI in the test on SF-268 CNS, with SF-295 CNS, in the test on SK-MEL-2 melanoma, with SK-MEL-5 melanoma, in the test with SK-OV-3 ovarian and in the test with SW-620 colon was greater than 100 µM throughout. The same compound returned a TGI in the test on U251 CNS greater than 100 µM.

For the compound `C=C1C[C@@H]2O[C@H]3[C@H]4[C@@H](C[C@@H](C)[C@@H](OC(C)=O)[C@H]42)[C@@H](C)CO[C@@]3(C)[C@H](OC(=O)CCCCCCC)C[C@H]1O`, the TGI was 34 µM with A549 NSCLC; 35 µM in the test on ACHN renal; 32.9 µM with BT-549 breast; 28 µM in the test on CAKI-1 renal; 29.9 µM in the test on COLO 205 colon; 28.3 µM with DU-145 prostate. The TGI is 30.1 µM in the test on HCT-116 colon; 36.4 µM in the test on HS 578T breast; 46.2 µM with HT29 colon; 31.5 µM in the test with KM12 colon; 40.4 µM with MCF7 breast; 30.7 µM with NCI/ADR-RES ovarian. The TGI amounted to 42.6 µM in the test with RPMI-8226 leukemia; 31.1 µM with SF-268 CNS; 36.4 µM in the test with SF-295 CNS; 36.7 µM in the test on SK-MEL-2 melanoma; 28.8 µM with SK-MEL-5 melanoma; 40.3 µM with SW-620 colon. In the test on U251 CNS, this compound showed a TGI of 30.6 µM.

Consider `COc1cc2cc(C(=O)N3CC(CCl)c4ccc([N+](=O)[O-])cc43)[nH]c2c(OC)c1OC` (stereo not given), for which the TGI in the test on A549 NSCLC, in the test on ACHN renal, in the test with BT-549 breast, with CAKI-1 renal, in the test on COLO 205 colon and with DU-145 prostate was greater than 100 µM in each case. Besides, the TGI in the test with HCT-116 colon is greater than 100 µM; in the test with HS 578T breast, greater than 100 µM; in the test with HT29 colon, 36.7 µM; in the test on KM12 colon, greater than 100 µM; with MCF7 breast it was greater than 100 µM; with NCI/ADR-RES ovarian it was greater than 100 µM. Besides, the TGI in the test with RPMI-8226 leukemia, in the test on SF-268 CNS, in the test with SF-295 CNS, with SK-MEL-2 melanoma, in the test with SK-MEL-5 melanoma and in the test with SW-620 colon was greater than 100 µM each time. In addition, in the test with U251 CNS, the TGI is greater than 100 µM.

Turning to `C/C=C(/C)C(=O)O[C@H]1[C@H]2[C@@H]([C@@H](OC(C)=O)[C@H](C)C(=O)[C@@]34C[C@@H](C)C(=O)[C@]3(/C=C(\C)[C@H]1OC(C)=O)O4)C2(C)C`, the TGI in the test with ACHN renal was 7.05 µM; in the test with BT-549 breast, 5.84 µM; in the test on CAKI-1 renal it was 10 µM; in the test with COLO 205 colon, 5.32 µM; in the test with DU-145 prostate, greater than 20 µM; in the test on HCT-116 colon, 5.99 µM. In addition, the TGI in the test with HS 578T breast was 19.7 µM; with KM12 colon, 17.8 µM; in the test on MCF7 breast it was 5.98 µM; with NCI/ADR-RES ovarian it was 8.03 µM; in the test on RPMI-8226 leukemia it was 9.94 µM; in the test with SF-268 CNS it was greater than 20 µM. Besides, the TGI in the test on SF-295 CNS was greater than 20 µM; in the test on SK-MEL-2 melanoma, 11 µM; in the test on SK-MEL-5 melanoma, 7.75 µM; in the test with SK-OV-3 ovarian, greater than 20 µM; in the test with SW-620 colon, 6.41 µM; with U251 CNS, greater than 20 µM.

Take `CCCC1CC(=O)NC(=O)C1C(=O)OC(C)(C)C` (stereo not given): the TGI in the test on ACHN renal, in the test with BT-549 breast, in the test with CAKI-1 renal, with COLO 205 colon, with DU-145 prostate and in the test with HCT-116 colon was greater than 100 µM each time. The TGI in the test with HS 578T breast, with HT29 colon, with KM12 colon, with MCF7 breast, in the test with NCI/ADR-RES ovarian and in the test with RPMI-8226 leukemia was greater than 100 µM each time. Further, the TGI in the test on SF-268 CNS, in the test on SF-295 CNS, in the test with SK-MEL-2 melanoma, with SK-MEL-5 melanoma, in the test on SW-620 colon and with U251 CNS was greater than 100 µM each time.

On to `CC(C)(Oc1ccc(Cl)cc1)C(=O)N(C(=O)N1CCCCC1)c1ccccc1`, for which the TGI with ACHN renal is 28.1 µM; in the test with BT-549 breast it was 30.4 µM; in the test on CAKI-1 renal, 29.9 µM; in the test on COLO 205 colon it was greater than 100 µM; in the test with DU-145 prostate, 27.8 µM; in the test with HCT-116 colon, 21.2 µM. For the same compound, the TGI with HS 578T breast is 58.5 µM; in the test on HT29 colon, 66.1 µM; in the test with KM12 colon, 41.2 µM; in the test on MCF7 breast, 47.3 µM; in the test on NCI/ADR-RES ovarian it was 37.4 µM; in the test on RPMI-8226 leukemia, greater than 100 µM. In addition, the TGI with SF-268 CNS is 56.7 µM; in the test with SK-MEL-2 melanoma, 32 µM; in the test on SK-MEL-5 melanoma it was 24.2 µM; in the test on SK-OV-3 ovarian, 40.4 µM; in the test with SW-620 colon, greater than 100 µM; in the test on U251 CNS, 39.2 µM.

Regarding `CSc1nn(C)cc2ncnc1-2`, the TGI with A549 NSCLC, in the test on ACHN renal, with BT-549 breast, with CAKI-1 renal, in the test on COLO 205 colon and with DU-145 prostate was greater than 100 µM in each case. Further, the TGI with HCT-116 colon, with HS 578T breast, in the test on HT29 colon, with KM12 colon, in the test with MCF7 breast and in the test on NCI/ADR-RES ovarian was greater than 100 µM in each case. Also, the TGI in the test with RPMI-8226 leukemia, with SF-268 CNS, in the test with SF-295 CNS, with SK-MEL-2 melanoma, in the test on SK-MEL-5 melanoma and in the test with SW-620 colon was greater than 100 µM in each case. In the test on U251 CNS, this compound had a TGI greater than 100 µM.

Take `Cn1c(=O)c2nc3c(=O)n(C)c(=O)n(CC(N)=O)c3nc2n(C)c1=O`: the TGI with ACHN renal, in the test with BT-549 breast, in the test on CAKI-1 renal, with COLO 205 colon, with DU-145 prostate and with HCT-116 colon was greater than 100 µM each time. In addition, the TGI in the test on HS 578T breast, with HT29 colon, in the test with KM12 colon, with MCF7 breast, in the test with NCI/ADR-RES ovarian and in the test on RPMI-8226 leukemia was greater than 100 µM in each case. Besides, the TGI in the test on SF-268 CNS, in the test with SF-295 CNS, in the test with SK-MEL-2 melanoma, in the test with SK-MEL-5 melanoma, in the test with SK-OV-3 ovarian and with SW-620 colon was greater than 100 µM each time. The TGI in the test on U251 CNS is greater than 100 µM.

On to `N#Cc1ccc(-c2nc3c(N)nc(-c4ccccc4)nc3o2)cc1`, for which the TGI in the test on A549 NSCLC, in the test with ACHN renal, with BT-549 breast, in the test on CAKI-1 renal, with COLO 205 colon and in the test on DU-145 prostate was greater than 100 µM throughout. Further, the TGI in the test with HCT-116 colon, in the test with HS 578T breast, with HT29 colon, in the test with KM12 colon, in the test on MCF7 breast and in the test on NCI/ADR-RES ovarian was greater than 100 µM throughout. Moreover, the TGI with RPMI-8226 leukemia, with SF-268 CNS, in the test with SF-295 CNS, in the test on SK-MEL-2 melanoma, in the test with SK-MEL-5 melanoma and in the test with SW-620 colon was greater than 100 µM in each case. This compound yielded a TGI in the test with U251 CNS of 27.7 µM.
